In patent publication US10662476B2 (priority 2011, dated 2020):
Where two headings read alike, the source gives them in different places.

How the values were obtained:
[1] = Blood concentrations of morphine glucuronides by ABCC3 -211C>T genotype; settings: for ratio to morphine concentration: heterozygous or homozygous ABCC3 -211C>T versus wild-type; for mean concentration at sampling time 10 to 15 minutes: wild-types (C/C) versus heterozygous and homozygous ABCC3 -211C>T, after single morphine dose
children following T/TA = settings: cited from earlier work
[2] = test system: children after tonsillectomy; assay: Pain intensity before and after codeine (0-100 visual analog scale); type: in vivo, human; settings: POD 0-2; 0-100 VAS, 45-60 minutes after dose; SE 2
[3] = test system: children after tonsillectomy; assay: Codeine-related adverse drug reactions at home after tonsillectomy (parent diary); settings: with every one point increase in CYP2D6 TAS; POD 0-2
[4] = test system: women following cesarean section; settings: cited from earlier work

| Compound | ratio to morphine concentration [1] | mean concentration at sampling time 10 to 15 minutes [1] | blood concentration at sampling time 10 to 15 minutes ([1]; twelve out of 105 children, all carrying the ABCC3 -211C>T variant, below lower quantitative limit) | children withdrawn from study due to intolerable side effects (children following T/TA; PRN administration following T/TA) | children withdrawn from study due to intolerable side effects (children following T/TA; around-the-clock (ATC) administration following T/TA) | reduction of pain intensity (average) [2] | increase of predicted number of ADRs [3] | reported analgesia ([4]; two patients with CYP2D6 TAS >3, discontinued due to ADRs) | reported analgesia ([4]; two patients with CYP2D6 TAS=0) |
| --- | --- | --- | --- | --- | --- | --- | --- | --- | --- |
| CN1CC[C@]23c4c5ccc(O[C@@H]6O[C@H](C(=O)O)[C@@H](O)[C@H](O)[C@H]6O)c4O[C@H]2[C@@H](O)C=C[C@H]3[C@H]1C5 [M3G, Morphine-3-glucuronide] | significantly lower | higher | – | – | – | – | – | – | – |
| CN1CC[C@]23c4c5ccc(O)c4O[C@H]2[C@@H](O[C@@H]2O[C@H](C(=O)O)[C@@H](O)[C@H](O)[C@H]2O)C=C[C@H]3[C@H]1C5 [M6G, morphine-6-glucuronide] | significantly lower | higher | < 1 ng/mL | – | – | – | – | – | – |
| COc1ccc2c3c1O[C@H]1[C@@H](O)C=C[C@H]4[C@@H](C2)N(C)CC[C@@]341 [codeine] | – | – | – | 6.7% | 17.4% | 28 points | 0.41 | significant pain relief | no analgesia |
